As usually defined, the IC50 is the midpoint of a concentration-inhibition curve.

The source of these data is patent US20250057970A1, “TROP2 TARGETING ANTIBODY-DRUG CONJUGATE, AND PREPARATION METHOD AND USE THEREFOR” (priority 2020, published 2025).

Read-outs that look alike come from different tables or passages of the source.

In this assay the test system is NCI-N87 cell line. Description: Killing activity on NCI-N87 before and after cathepsin B digestion. The class given is cell-based, human. The following applies: NCI-N87, 144 hours, read-out: IC50 (based on SN-38 equivalent). The procedure:
NCI-N87 cell line was selected as the experimental cell lines. After the sample was incubated in cathepsin B system (100 mM sodium acetate-acetic acid buffer, 4 mM dithiothreitol, pH 5.0) at 37° C. for 4 hours, the obtained sample was diluted with culture medium to different concentrations. 8 concentrations (1.5 to 10-fold dilution) were set from 70 nM to 0.003 nM of SN-38 concentration. […] The IC50 value was calculated by reading the […] data after chemical luminescent staining with CellTiter-Glo® Luminescent Cell Viability Assay.

As for `CCc1c2c(nc3ccc(O)cc13)-c1cc3c(c(=O)n1C2)COC(=O)[C@]3(O)CC` [SN-38, 7-ethyl-10-hydroxycamptothecin, reference compound], the IC50 is, setting by setting: (After Enzyme Digestion (cathepsin B, pH 5.0, 37° C., 4 hours)) 7.43 nM; (Before Enzyme Digestion) 7.18 nM.
